Results on 30 compounds are retold here after patent publication US5587392A, “Azolyl methyl phenyl derivatives having aromatase inhibitory activity” (Mochida Pharmaceutical Co., Ltd., priority 1994, dated 1996).

As a reminder, the IC50 is the concentration needed to halve the response being measured.

The conditions of series [1]: related art; cited from earlier work.
A further series addresses T1, aromatase from rat ovary (Rattus norvegicus, UniProt P22443).
T1 construct: Using as an enzyme sample the ovarian microsome fraction from a female rat; from tissue; host or cells: rat ovary, microsome fraction (female rat)
T1 sequence (P22443 1-508): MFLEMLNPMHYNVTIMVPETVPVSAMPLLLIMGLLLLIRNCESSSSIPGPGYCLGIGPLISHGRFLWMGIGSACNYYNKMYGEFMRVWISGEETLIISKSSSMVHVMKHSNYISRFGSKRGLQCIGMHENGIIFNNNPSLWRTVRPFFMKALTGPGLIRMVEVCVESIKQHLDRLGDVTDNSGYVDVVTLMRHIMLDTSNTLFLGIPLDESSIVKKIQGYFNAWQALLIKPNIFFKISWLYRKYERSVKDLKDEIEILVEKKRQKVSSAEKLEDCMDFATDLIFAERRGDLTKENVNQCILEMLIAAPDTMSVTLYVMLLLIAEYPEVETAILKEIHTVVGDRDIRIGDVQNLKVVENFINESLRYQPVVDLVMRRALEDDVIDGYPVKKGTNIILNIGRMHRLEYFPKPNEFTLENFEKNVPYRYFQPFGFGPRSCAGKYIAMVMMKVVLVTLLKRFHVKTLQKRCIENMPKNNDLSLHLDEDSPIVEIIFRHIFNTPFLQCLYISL
Briefly: Inhibitory activity on aromatase from rat ovary. In kind it is biochemical.

The subject of the next series is plasma estradiol. As to the kind of experiment: Decreasing activity on blood estrogen (plasma estradiol, PMSG-treated rats). It counts as in vivo, female SD rats. The settings on record: Rattus norvegicus, po, 4 hours after dosing, read-out: Ratio in plasma estradiol decrease; for inhibition in vivo at 0.1 mg/kg: 0.1 mg/kg orally; for inhibition in vivo at 0.01 mg/kg: 0.01 mg/kg orally. Here is the method:
More specifically, pregnant mare serum gonadotropin (PMSG) was subcutaneously administered to female SD rats aged 3 weeks, at a dose of 200 IU/rat. […] Four hours after the dosing of the test compound, blood was sampled, and plasma estradiol was messuered by radioimmunoassay(RIA). The decreasing ratio (%) in plasma estradiol levels was calculated by comparing with control groups.

Series [2] relates to steroid hormone level in blood. As to the kind of experiment: Effects on the synthesis of various steroid hormones, compared with the dose lowering blood estrogen. It counts as in vivo, rats. The settings on record: 10 mg/kg.
Another series has as its system progesterone. Briefly: Effect on plasma levels of progesterone. The settings on record: even at the highest doses (10 mg/kg; CGS 16949A 1 mg/kg). It counts as in vivo, male SD rats.
A further series concerns corticosterone. As to the kind of experiment: Effect on plasma levels of corticosterone. The settings on record: even at the highest doses (10 mg/kg; CGS 16949A 1 mg/kg). In kind it is in vivo, male SD rats.
Another series deals with testosterone. As to the kind of experiment: Effect on plasma levels of testosterone. It counts as in vivo, male SD rats. The settings on record: even at the highest doses (10 mg/kg; CGS 16949A 1 mg/kg).
For a further series, the system named is aromatase. To be noted: related art; cited from earlier work.
The subject of series [3] is estrogen-dependent diseases. The settings on record: related art; cited from earlier work.
Where [4] appears, read: rat ovarian microsomes, 30 nM [1β-3H] androstenedione, pH 7.4, 37° C., 15 minutes, read-out: IC50 value.

The structures appear in SMILES notation. Where two headings read alike, the source gives them in different places.

Consider `C[C@]12CCC(=O)C(O)=C1CC[C@@H]1[C@@H]2CC[C@]2(C)C(=O)CC[C@@H]12` [4-hydroxyandrostenedione], for which the “absorption when administered orally” value in [1] is listed as “poorly absorbed when administered orally”.

For `Clc1ccc(Oc2cccc3ccccc23)c(Cn2ccnc2)c1` [Example 5, 1-[5-chloro-2-(1-naphthyloxy)benzyl]-1H-imidazole], the IC50 at aromatase from rat ovary (setting [4]) amounted to 6 nM.

In the case of `Clc1ccc(Oc2ccc3ccccc3c2)c(Cn2ccnc2)c1` [Example 6, 1-[5-Chloro-2-(2-naphthyloxy)benzyl]-1H-imidazole], the IC50 at aromatase from rat ovary (setting [4]) came out at 9.9 nM.

As to `Cn1nnc2ccc(Oc3ccc(Cl)cc3Cn3ccnc3)cc21` [Example 38, 6-[4-chloro-2-(1H-imidazol-1-ylmethyl)phenoxy]-1-methyl-1H-benzotriazole], the IC50 at aromatase from rat ovary (setting [4]) was determined as 0.4 nM. Also, the inhibition in vivo at 0.1 mg/kg with plasma estradiol worked out at 44%.

Consider `Clc1ccc(Oc2ccc3[nH]nnc3c2)c(Cn2cncn2)c1` [Example 40, 5-[4-chloro-2-(1H-1,2,4-triazol-1-ylmethyl)phenoxy]-1H-benzotriazole], for which, on aromatase from rat ovary (setting [4]), the half-inhibitory concentration (IC50) amounted to 0.6 nM.

As for `Cn1nnc2ccc(Oc3ccc(Cl)cc3Cn3cncn3)cc21` [Example 41, 6-[4-chloro-2-(1H-1,2,4-triazol-1-ylmethyl)phenoxy]-1-methyl-1H-benzotriazole], in series [2], the “effect on any steroid hormone level in blood” value is “Neither the compound of Example 41 nor the compound of Example 52 in accordance with the present invention had any effect”. Moreover, the concentration for half-maximal inhibition (IC50) on aromatase from rat ovary (setting [4]) was determined as 0.5 nM. In the series with plasma estradiol, the inhibition in vivo at 0.01 mg/kg is 46% and the inhibition in vivo at 0.1 mg/kg stood at 70%. In the series on progesterone, the “effect on plasma levels of progesterone” value is “neither the compound of Example 41 nor the compound of Example 52 in accordance with the present invention had any effect”. The “effect on plasma levels of corticosterone” value in the series with corticosterone is recorded as “neither the compound of Example 41 nor the compound of Example 52 in accordance with the present invention had any effect”. For the same compound, the “effect on plasma levels of testosterone” value in the series with testosterone is on record as “neither the compound of Example 41 nor the compound of Example 52 in accordance with the present invention had any effect”.

For the compound `Cn1nnc2ccc(Oc3ccc(Br)cc3Cn3cncn3)cc21` [Example 43, 6-[4-bromo-2-(1H-1,2,4-triazol-1-ylmethyl)phenoxy]-1-methyl-1H-benzotriazole], the 50% inhibitory concentration (IC50) on aromatase from rat ovary (setting [4]) is 0.3 nM. Besides, in the series with plasma estradiol, the inhibition in vivo at 0.01 mg/kg came out at 41% and the inhibition in vivo at 0.1 mg/kg was found to be 69%.

Turning to `Cn1nnc2ccc(Oc3ccccc3Cn3cncn3)cc21` [Example 44, 1-methyl-6-[2-(1H-1,2,4-triazol-1-ylmethyl)phenoxy]-1H-benzotriazole], the IC50 at aromatase from rat ovary (setting [4]) worked out at 7.8 nM. Moreover, the inhibition in vivo at 0.1 mg/kg with plasma estradiol stood at 23%.

Regarding `Cn1nnc2ccc(Oc3ccc(F)cc3Cn3cncn3)cc21` [Example 45, 6-[4-Fluoro-2-(1H-1,2,4-triazol-1-ylmethyl)phenoxy]-1-methyl-1H-benzotriazole], at aromatase from rat ovary (setting [4]), the 50% inhibitory concentration (IC50) came out at 3.3 nM.

In the case of `Cn1nnc2ccc(Oc3ccc(I)cc3Cn3cncn3)cc21` [Example 46, 6-[4-Iodo-2-(1H-1,2,4-triazol-1-ylmethyl)phenoxy]-1-methyl-1H-benzotriazole], the IC50 on aromatase from rat ovary (setting [4]) came to 0.4 nM. The inhibition in vivo at 0.01 mg/kg in the series with plasma estradiol was 36%.

Regarding `COc1ccc(Oc2ccc3nnn(C)c3c2)c(Cn2cncn2)c1` [Example 47, 6-[4-Methoxy-2-(1H-1,2,4-triazol-1-ylmethyl)phenoxy]-1-methyl-1H-benzotriazole], on aromatase from rat ovary (setting [4]), the half-maximal inhibitory concentration (IC50) amounted to 1.6 nM.

Regarding `Cn1nnc2ccc(Oc3ccc(OC(F)(F)F)cc3Cn3cncn3)cc21` [Example 48, 1-Methyl-6-[4-(trifluoromethoxy)-2-(1H-1,2,4-triazol-1-ylmethyl)phenoxy]-1H-benzotriazole], the IC50 against aromatase from rat ovary turned out to be 0.9 nM. Besides, the inhibition in vivo at 0.01 mg/kg in the series with plasma estradiol is 30%.

As for `Cn1nnc2ccc(Oc3cc(Cl)ccc3Cn3cncn3)cc21` [Example 49, 6-[5-Chloro-2-(1H-1,2,4-triazol-1-ylmethyl)phenoxy]-1-methyl-1H-benzotriazole], on aromatase from rat ovary (setting [4]), the IC50 worked out at 1.5 nM.

As to `Cn1nnc2ccc(Oc3ccc([N+](=O)[O-])cc3Cn3cncn3)cc21` [Example 50, 1-methyl-6-[4-nitro-2-(1H-1,2,4-triazol-1-ylmethyl)phenoxy]-1H-benzotriazole], the 50% inhibitory concentration (IC50) at aromatase from rat ovary (setting [4]) was determined as 0.5 nM. The inhibition in vivo at 0.01 mg/kg in the series with plasma estradiol is 59%.

As for `CC(=O)c1ccc(Oc2ccc3nnn(C)c3c2)c(Cn2cncn2)c1` [Example 51, 4-[6-(1-methyl-1H-benzotriazoyloxy)]-3-(1H-1,2,4-triazol-1-ylmethyl)acetophenone], the IC50 on aromatase from rat ovary (setting [4]) is 1.2 nM.

Turning to `Cn1nnc2ccc(Oc3ccc(C=O)cc3Cn3cncn3)cc21` [Example 53, 4-[6-(1-methyl-1H-benzotriazoyloxy)]-3-(1H-1,2,4-triazol-1-ylmethyl)benzaldehyde], the IC50 on aromatase from rat ovary (setting [4]) worked out at 0.8 nM.

For the compound `CCOC(=O)c1ccc(Oc2ccc3nnn(C)c3c2)c(Cn2cncn2)c1` [Example 55, 4-[6-(1-methyl-1H-benzotriazoyloxy) ]-3-(1H-1,2,4-triazol-1-ylmethyl)benzoic acid ethyl ester], on aromatase from rat ovary (setting [4]), the half-maximal inhibitory concentration (IC50) amounted to 1.4 nM.

For the compound `C=Cc1ccc(Oc2ccc3nnn(C)c3c2)c(Cn2cncn2)c1` [Example 56], the IC50 at aromatase from rat ovary (setting [4]) was 0.3 nM.

Take `C#Cc1ccc(Oc2ccc3nnn(C)c3c2)c(Cn2cncn2)c1` [Example 58, 6-[4-ethynyl-2-(1H-1,2,4-triazol-1-ylmethyl)phenoxy]-1-methyl-1H-benzotriazole]: the IC50 at aromatase from rat ovary (setting [4]) worked out at 0.3 nM.

Consider `Cn1nnc2ccc(Oc3ccc(C(F)(F)F)cc3Cn3cncn3)cc21` [Example 64, 6-[2-(1H-1,2,4-triazol-1-ylmethyl)-4-(trifluoromethyl)phenoxy]-1-methyl-1H-benzotriazole], for which the half-inhibitory concentration (IC50) on aromatase from rat ovary (setting [4]) was found to be 0.6 nM.

In the case of `CCn1nnc2ccc(Oc3ccc(Cl)cc3Cn3cncn3)cc21` [Example 67, 6-[4-chloro-2-(1H-1,2,4-triazol-1-ylmethyl)phenoxy]-1-ethyl-1H-benzotriazole], the 50% inhibitory concentration (IC50) on aromatase from rat ovary (setting [4]) is 0.6 nM.

For the compound `Cn1cnc2ccc(Oc3ccc(Cl)cc3Cn3cncn3)cc21` [Example 68, 6-[4-chloro-2-(1H-1,2,4-triazol-1-ylmethyl)phenoxy]-1-methylbenzimidazole], the IC50 at aromatase from rat ovary (setting [4]) came out at 2.6 nM.

For `Cn1nnc2ccc(Sc3ccc(Cl)cc3Cn3cncn3)cc21` [Example 71, 6-[4-chloro-2-(1H-1,2,4-triazol-1-ylmethyl)phenylthio]-1-methyl-1H-benzotriazole], at aromatase from rat ovary (setting [4]), the IC50 worked out at 1.2 nM.

In the case of `Cn1nnc2ccc(Cc3ccc(Cl)cc3Cn3cncn3)cc21` [Example 79, 6-[4-chloro-2-(1H-1,2,4-triazol-1-ylmethyl)benzyl]-1-methyl-1H-benzotriazole], the IC50 at aromatase from rat ovary (setting [4]) came to 0.7 nM.

For the compound `Cn1nnc2ccc(Cc3ccc(C#N)cc3Cn3cncn3)cc21` [Example 80, 4-[(1-methyl-1H-benzotriazole-6-yl)methyl]-3-(1H-1,2,4-triazol-1-ylmethyl)benzonitrile], at aromatase from rat ovary (setting [4]), the IC50 was 1.9 nM. For the same compound, the inhibition in vivo at 0.1 mg/kg in the series on plasma estradiol is 49%.

Turning to `Clc1ccccc1C(c1ccccc1)(c1ccccc1)n1ccnc1` [clotrimazole], in the series with aromatase, the aromatase inhibitory action result was “have aromatase inhibitory activities as well”.

With `CC(=O)N1CCN(c2ccc(OCC3COC(Cn4ccnc4)(c4ccc(Cl)cc4Cl)O3)cc2)CC1` (stereo not drawn) [ketoconazole], the aromatase inhibitory action result in the series on aromatase is recorded as “have aromatase inhibitory activities as well”.

As to `Clc1ccc(COC(Cn2ccnc2)c2ccc(Cl)cc2Cl)c(Cl)c1` (stereo not drawn) [miconazole], in the series with aromatase, the aromatase inhibitory action entry was “have aromatase inhibitory activities as well”.

With `CC/C(=C(\c1ccccc1)c1ccc(OCCN(C)C)cc1)c1ccccc1` [tamoxifen], in [3], the therapeutical efficacy entry is “clinically satisfactory effect cannot be brought about from such administration alone”.

Take `C[C@]12C=CC(=O)C=C1CC[C@@H]1[C@@H]2CC[C@]2(C)OC(=O)CC[C@@H]12` [testolactone]: the “absorption when administered orally” value in [1] is “poorly absorbed when administered orally”. Further, the therapeutical efficacy entry in [3] is recorded as “never exerts sufficient therapeutical efficacy”.
